Data published in paper PMC7472660 (Chemical Science, 2019).

Target: prostate-specific membrane antigen (PSMA) (Homo sapiens, UniProt Q04609)
Test: radioligand displacement of […]mTc-MIP-1427 on PSMA+ PC-3 PiP cells
Type: cell-based

prostate-specific membrane antigen (PSMA), sequence (Q04609 whole entry): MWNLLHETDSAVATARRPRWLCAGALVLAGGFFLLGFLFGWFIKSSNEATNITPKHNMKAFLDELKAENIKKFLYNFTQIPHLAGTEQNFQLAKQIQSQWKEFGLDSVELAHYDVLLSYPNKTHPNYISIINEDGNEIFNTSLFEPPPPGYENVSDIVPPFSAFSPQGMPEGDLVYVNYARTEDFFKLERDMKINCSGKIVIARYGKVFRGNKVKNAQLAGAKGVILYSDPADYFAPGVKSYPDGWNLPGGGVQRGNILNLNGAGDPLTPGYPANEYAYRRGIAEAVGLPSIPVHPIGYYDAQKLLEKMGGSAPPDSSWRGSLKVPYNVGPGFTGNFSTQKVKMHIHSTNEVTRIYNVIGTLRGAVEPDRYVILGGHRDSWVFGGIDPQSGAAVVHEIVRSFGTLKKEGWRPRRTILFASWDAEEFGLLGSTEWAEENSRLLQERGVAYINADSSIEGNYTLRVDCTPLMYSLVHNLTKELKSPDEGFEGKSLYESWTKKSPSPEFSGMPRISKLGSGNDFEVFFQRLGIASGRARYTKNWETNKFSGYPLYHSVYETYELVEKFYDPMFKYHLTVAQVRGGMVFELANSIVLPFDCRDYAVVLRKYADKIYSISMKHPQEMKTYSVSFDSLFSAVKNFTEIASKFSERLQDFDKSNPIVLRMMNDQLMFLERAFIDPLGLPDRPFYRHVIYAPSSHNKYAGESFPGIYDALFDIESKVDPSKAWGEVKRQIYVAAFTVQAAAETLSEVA

Substance	Ki
Sc(DOTA)-DUPA	222 ± 186 nM
Sc(picaga)-DUPA	1.6 ± 0.4 nM
